Patent US7037656B2, “Methods and compositions for identifying ligands for nuclear receptors” (priority 2000, dated 2006)
Values joined by “and” are separate entries in the source; they are usually repeats but may differ in a detail not shown here. Equal entries are not always repeated.

Tests used:
Assay in all cases: Yeast 6x EcRE-lacZ β-galactosidase transactivation assay
[1] = target: T1, Aa ΔA/B EcR + RXRα + GRIP1 (Aedes aegypti, UniProt P49880); format: cell-based, Aedes aegypti; human; settings: RH 5992 10 μM, 4 hours, DMSO control 0.544
T1 construct: ubiquitin (human, 76 aa) (N, cleaved yes); expressed in transfected cells
T1 sequence (P49880 with tags, fused parts or gaps): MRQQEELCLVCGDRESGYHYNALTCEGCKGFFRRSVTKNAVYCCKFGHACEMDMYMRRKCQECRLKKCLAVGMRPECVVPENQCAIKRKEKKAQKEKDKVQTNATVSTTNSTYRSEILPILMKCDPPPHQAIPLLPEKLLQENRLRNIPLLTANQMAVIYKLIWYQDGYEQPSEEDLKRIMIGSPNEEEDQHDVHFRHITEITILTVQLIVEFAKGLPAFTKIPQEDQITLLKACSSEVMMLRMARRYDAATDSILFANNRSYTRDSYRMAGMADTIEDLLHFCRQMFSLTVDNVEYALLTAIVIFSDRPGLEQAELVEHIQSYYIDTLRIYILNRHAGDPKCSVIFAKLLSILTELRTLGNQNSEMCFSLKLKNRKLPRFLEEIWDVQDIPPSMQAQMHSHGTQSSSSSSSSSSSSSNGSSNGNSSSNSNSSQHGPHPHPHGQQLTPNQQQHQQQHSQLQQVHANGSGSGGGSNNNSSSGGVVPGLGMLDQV
T1 sequence (P19793 whole entry partner): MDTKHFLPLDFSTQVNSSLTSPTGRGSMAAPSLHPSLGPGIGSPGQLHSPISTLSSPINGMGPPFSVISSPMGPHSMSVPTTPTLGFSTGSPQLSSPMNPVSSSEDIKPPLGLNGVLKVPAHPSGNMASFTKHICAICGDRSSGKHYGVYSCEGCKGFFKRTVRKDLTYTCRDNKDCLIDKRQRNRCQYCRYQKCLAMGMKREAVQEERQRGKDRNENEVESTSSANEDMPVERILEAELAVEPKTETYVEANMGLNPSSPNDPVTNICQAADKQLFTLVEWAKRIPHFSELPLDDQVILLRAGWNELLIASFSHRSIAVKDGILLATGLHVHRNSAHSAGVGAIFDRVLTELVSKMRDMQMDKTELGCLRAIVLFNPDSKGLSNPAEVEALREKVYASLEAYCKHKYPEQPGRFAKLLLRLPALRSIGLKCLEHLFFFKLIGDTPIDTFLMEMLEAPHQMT
Experimental: (§1) The human RXR α (Genbank accession number X52773), mouse RXR β (Genbank accession number X66224) or mouse RXR γ (Genebank accession number X66225) subtypes were expressed in yeast-E. coli multicopy 2μ expression plasmids under regulation of CUP1 promoter with the LEU2 selective marker (1).
Briefly, yeast cells are cultured in 5 mL of YPD liquid medium overnight at 30° C. The cell culture was diluted 1:20 in YPD media and further grown until cell density reached an O.D of 0.6. at OD600. The cells were pelleted by centrifugation and washed with 10 mL of TE+0.1M lithium acetate. Cells are then resuspended in 10 mL TE+0.1M lithium acetate and incubated at 30° C. for 1 hour. Cells are collected and resuspended in 0.5 mL of TE+ 0.1M lithium acetate. […]
Using the transformation method described above, yeast were co-transformed with a reporter gene as shown in FIG. 2 and the expression vector encoding the full-length Aedes aegypti ecdysone receptor, Aa EcR (FIG. 7A) in the presence or absence of the Aa EcR heterodimer partner, Aa USP (a or b form, FIGS. 8A and 8B respectively). […] As the N-terminal portion of the AaEcR receptor is reported to play a role in ligand independent transactivation, an expression vector containing an N-terminal deletion in the Aa EcR was constructed (see FIG. 7B) and assessed in the β-galactosidase assays described above. […]

[2] = target: T2, Cf ΔA/B EcR + Cf ΔA/B USP + GRIP1 (Choristoneura fumiferana, UniProt O77240); format: cell-based; settings: RH 5992 10 μM, 4 hours, DMSO control 0.200
T2 construct: human ubiquitin (76 aa) (N, cleaved yes); expressed in transfected cells; host or cells: yeast (Saccharomyces cerevisiae)
T2 sequence (O77240 entry or part of it, stated change not applied): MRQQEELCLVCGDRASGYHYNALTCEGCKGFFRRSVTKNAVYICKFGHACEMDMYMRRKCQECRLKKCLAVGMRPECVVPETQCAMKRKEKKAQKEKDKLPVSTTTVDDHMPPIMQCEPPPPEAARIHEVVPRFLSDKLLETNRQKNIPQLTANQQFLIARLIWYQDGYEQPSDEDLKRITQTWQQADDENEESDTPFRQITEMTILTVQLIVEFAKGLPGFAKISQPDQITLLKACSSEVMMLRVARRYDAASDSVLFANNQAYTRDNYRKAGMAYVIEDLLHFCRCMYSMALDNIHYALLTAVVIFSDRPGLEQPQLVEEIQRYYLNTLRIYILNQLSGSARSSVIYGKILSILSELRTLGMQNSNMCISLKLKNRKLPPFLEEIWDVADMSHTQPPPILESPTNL
T2 sequence (O76202 with tags, fused parts or gaps partner): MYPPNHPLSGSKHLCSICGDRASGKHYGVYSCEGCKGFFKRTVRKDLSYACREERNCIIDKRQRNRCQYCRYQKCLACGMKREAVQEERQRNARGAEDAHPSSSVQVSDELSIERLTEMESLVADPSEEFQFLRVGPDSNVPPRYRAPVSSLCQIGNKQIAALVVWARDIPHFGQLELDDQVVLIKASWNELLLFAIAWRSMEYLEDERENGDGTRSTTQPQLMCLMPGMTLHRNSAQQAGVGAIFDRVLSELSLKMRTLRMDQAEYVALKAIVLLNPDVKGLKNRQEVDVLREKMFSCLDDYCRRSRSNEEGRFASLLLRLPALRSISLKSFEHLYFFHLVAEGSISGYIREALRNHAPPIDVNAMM
Experimental: (§2) Briefly, yeast cells are cultured in 5 mL of YPD liquid medium overnight at 30° C. The cell culture was diluted 1:20 in YPD media and further grown until cell density reached an O.D of 0.6. at OD600. The cells were pelleted by centrifugation and washed with 10 mL of TE+0.1M lithium acetate. Cells are then resuspended in 10 mL TE+0.1M lithium acetate and incubated at 30° C. for 1 hour. Cells are collected and resuspended in 0.5 mL of TE+ 0.1M lithium acetate. Aliquots of cells (50 μL), were incubated for 15 minutes at 30° C. with 1–2 μg plasmid DNA in the presence of 5 μg of denatured salmon sperm DNA as DNA carrier. In the case of co-transformation, the indicated plasmids were added simultaneously. 50% polyethyleneglycol of molecular weight 4000, diluted in TE, was added to a final concentration of 35%. DMSO was added to the transformation solution simultaneously to a final concentration 3%. The samples were mixed well by vortexing and incubated for an additional 30 minutes at 30° C. The cell mixture is then heated for 15 minutes at 42° C. Cells were then collected and plated onto appropriate yeast selective media. Transformants of 4 plasmids are selected on the complete media without tryptophan, uracil, leucine and histidine.
The yeast cells grown overnight in selective liquid media at 30° C. were diluted in prewarmed liquid selective media to 0.1 at OD600 (ODculture). […]

[3] = system: Cf ΔA/B EcR + RXR β + GRIP1; format: cell-based, Choristoneura fumiferana; mouse; settings: RH 5992 10 μM, 4 hours, DMSO control 0.205
Experimental: as §1
as §2, with “Cells were then collected and plated onto appropriate yeast selective media. Transformants of 4 plasmids are selected on the complete media without tryptophan, uracil, leucine and histidine.” left out

CCc1ccc(C(=O)NN(C(=O)c2cc(C)cc(C)c2)C(C)(C)C)cc1 [RH 5992, tebufenozide]
β-galactosidase activity [1]: 2.032
β-galactosidase activity [2]: 2.500 and 3.000
β-galactosidase activity [3]: 0.456
